# Experimental data reported in patent US20130252890A1, “6,7-DIHYDRO-5H-BENZO[7]ANNULENE DERIVATIVES, PROCESS FOR PREPARATION THEREOF, PHARMACEUTICAL PREPARATIONS COMPRISING THEM, AND THE USE THEREOF FOR PRODUCTION OF MEDICAMENTS” (BAYER INTELLECTUAL PROPERTY GMBH, priority 2010, published 2013).
# Entries after “also recorded” stand apart in the source; their conditions may differ.
# Legend:
# uterus [1] = test: Anti-uterus growth test in the adult rat; settings: sc, 72 h; ovariectomized adult rat, s.c. 3 days with 1.5 μg/kg/day 17β-estradiol; inhibition of uterus growth; value of 44 is a mean of two measurements; read-out: anti-oestrogenic activity in vivo in % at a dose of 0.3 mg/kg (rat)
# Source text: The uterus of oestrogen-substituted rats can be used as a test model for detecting a direct action of substances with anti-oestrogenic properties. The parameter of oestrogenic action is estradiol-induced uterus growth in rats, which is inhibited by simultaneous administration of a substance with anti-oestrogenic action. The experimental animals (n=5-6 animals/group) were ovariectomized before the start of the test, to rule out the influence of endogenous oestrogens. After a phase of 6 to 10 days, the test substances are administered s.c. on 3 consecutive days (d1-d3) in combination with a substitution dose of 1.5 μg/kg/day 17β-estradiol. 17β-estradiol alone serves as positive control, and the excipients serve as negative control. On day 4 (d4) the animals are killed, and the uteri and vaginae are removed and weighed. The organ weights are converted to mg/100 g body weight, then the mean value and the standard deviation are calculated for each dosage. The inhibition of uterus growth induced by 17β-estradiol is shown as percentage inhibition.
# uterus [2] = test: Oestrogenic action - uterus growth test in the infantile rat; assay type: in vivo; settings: sc, 72 h, s.c. 3 days, maximum at dose 0.03 mg/kg, relative to E2 0.3 μg/animal, read-out: maximum uterotropic action (% estradiol action) in the dose range from 0.03 to 3 mg/kg
# Method: Both the uterus and the vagina show a weight increase that is dependent on oestrogenic efficacy, in infantile animals when they are treated with a substance with oestrogenic action. In the uterus, under oestrogenic action there is also proliferation and increase in height of the luminal epithelium.
# Immature, intact rats (n=5-6 animals/group; body weight 40-50 g) receive the substance s.c. for 3 days (d1-d3). On day 4 (d4) the animals are killed with CO2. The uteri are removed and weighed. For histological assessment, a piece of uterus, preferably a uterine horn, is fixed in formaldehyde and embedded in paraffin. The stimulation of the organ weights (relative to mg/100 g body weight) and the height of the epithelium are shown as percentage stimulation in comparison with the reference compound 17β-estradiol (E2). (Substitution dose of E2 0.3 μg/animal).
# oestrogen receptor (ER) = target: T1, oestrogen receptor (ER) (Homo sapiens, UniProt P03372); test: Anti-oestrogenic action in MVLN cells (inhibition of estradiol-induced luciferase); assay type: cell-based; settings: inhibition of estradiol-induced luciferase signal, value of Ex. 44 is a mean value, read-out: Antioestrogenic action in vitro: MVLN transactivation antagonism IC50
# T1 construct: These MVLN cells express, along with the functional oestrogen receptor (ER), a reporter construct; endogenous in cells; host or cells: MVLN cells (MCF7 derivative carrying a luciferase reporter construct)
# T1 sequence (P03372 1-595): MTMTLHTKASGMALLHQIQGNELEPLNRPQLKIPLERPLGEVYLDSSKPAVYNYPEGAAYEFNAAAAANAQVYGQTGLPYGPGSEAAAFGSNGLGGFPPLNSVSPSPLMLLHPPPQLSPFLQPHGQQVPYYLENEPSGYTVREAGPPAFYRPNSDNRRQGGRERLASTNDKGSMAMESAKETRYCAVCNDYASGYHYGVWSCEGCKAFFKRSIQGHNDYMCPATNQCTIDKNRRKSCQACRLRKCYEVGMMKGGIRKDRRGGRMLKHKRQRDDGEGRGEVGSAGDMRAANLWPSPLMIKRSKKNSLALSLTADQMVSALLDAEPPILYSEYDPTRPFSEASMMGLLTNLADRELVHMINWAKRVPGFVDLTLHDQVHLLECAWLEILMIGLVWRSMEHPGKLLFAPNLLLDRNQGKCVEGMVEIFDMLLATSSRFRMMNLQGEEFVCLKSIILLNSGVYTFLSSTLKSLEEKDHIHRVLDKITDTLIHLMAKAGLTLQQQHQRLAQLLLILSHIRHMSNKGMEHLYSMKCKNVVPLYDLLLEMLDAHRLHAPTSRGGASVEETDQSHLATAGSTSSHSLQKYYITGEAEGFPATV
# Outline: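 MVLN cells, MCF7 breast cancer derivatives carrying functional ER plus an ER-activated luciferase reporter, were treated with compounds in the presence of estradiol. Anti-oestrogenic activity taken as inhibition of the estradiol-induced luciferase signal.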
# [3] = test system: ovarian estradiol synthesis; test: Stimulation of ovarian oestrogen synthesis (HPG axis) in intact adult rats; assay type: in vivo, rat; settings: hormonally intact adult rats, daily for 10 days; quotient of peripheral estradiol values after and before treatment
# Source text: The clinical use both of pure anti-oestrogens and of various SERMs for the treatment of premenopausal women is limited by their property of stimulating the ovaries through activation of the hypothalamic-pituitary-gonadal axis (HPG axis), which leads to the increase in peripheral estradiol levels (Palomba, S., Orio, F., Jr., Morelli, M., Russo, T., Pellicano, M., Zupi, E., Lombardi, G., Nappi, C., Panici, P. L., and Zullo, F. (2002). Raloxifene administration in premenopausal women with uterine leiomyomas: a pilot study. J Clin Endocrinol Metab 87, 3603-3608). This stimulation of the HPG axis is associated with penetration of the blood-brain barrier and penetration of the brain. To investigate the ovary-stimulating properties of the claimed pharmacological compounds, hormonally intact adult rats were treated with the substances daily for a period of 10 days. The study end point is the quotient of peripheral estradiol values after and before treatment.
# [4] = test system: peripheral cholesterol level; test: Hepatic oestrogenicity in the ovariectomized adult rat (plasma cholesterol); assay type: in vivo; settings: ovariectomized adult rats, s.c. daily for 6 days; cholesterol day 0 vs day 8
# Source text: Substances with oestrogenic action influence the synthesis of various plasma proteins, of coagulation factors and fibrinolytic factors in the liver. […] In the present investigations, lowering of the peripheral cholesterol level is used as a surrogate parameter for analysis of the hepatic oestrogenicity of the claimed pharmacological compounds. Adult ovariectomized rats were, after a pause of 6-10 days, treated daily for 6 days with the substances by subcutaneous application. The plasma cholesterol levels were determined and compared before and after the respective treatment.
# endometriosis lesions = test: Endometriosis model in the rat (autologous transplantation); assay type: in vivo; settings: rat
# Source text: Using intact adult female rats, experimental endometriosis was induced in the autologous transplantation model based on Vernon M. W. and Wilson E. A., 1985 (Fertil Steril. 44(5):684-694). A uterine horn was removed from animals that were exclusively in oestrus, the myometrium was separated from the endometrium and biopsies with dimensions of 4×4 mm were obtained from the endometrial tissue. Two uterine fragments were transplanted onto the inside of the abdominal wall (peritoneum) and two uterine fragments were transplanted onto the mesenterium of the same animal (4 fragments per animal). After 21 days the animals with endometriosis were laparotomized, and the size of the transplants was determined. The animals were treated after laparotomy and then daily in the morning with the stated dosages of the selected claimed substances by subcutaneous administration. Finally, 28 days after the start of treatment (49 days after transplantation), all the animals were laparotomized again and the size of the lesion was measured and was correlated with the size before the start of treatment.
# ERα protein = target: T2, ERα protein (Homo sapiens, UniProt P03372); test: Effect on stability of ERα protein in T47D breast cancer cells (ELISA); assay type: cell-based; settings: 24 hours, ER protein by ELISA
# T2 construct: These cells express the ER in functional form; endogenous in cells; host or cells: T47D breast cancer cells
# T2 sequence (P03372 1-595): T1 sequence (P03372 1-595)
# Method: As well as inhibition of the transcriptional activity of the ER, anti-oestrogens influence the expression level of the ER in the target tissues through stimulation of the proteolytic degradation of the ER. In comparison with an ER-E2 complex, the ER bound in a complex with the pure anti-oestrogen fulvestrant has a substantially shorter half-life.
# The effect of the claimed pharmacological compounds on the stability of the ER was analysed in T47D breast cancer cells (see Table 1, column Standardized ER-destabilization [%]). These cells express the ER in functional form. The cells are incubated for 24 hours with the claimed compounds at a concentration of 1 μM. After lysis of the cells, the content of ER protein was determined by ELISA. […] Compounds with ER content below 30% are classified as destabilizing.
# As described, the claimed pharmacological substances were investigated for their action on the stability of the ERα protein (see Table 1).
# [5] = test system: trabecular bone density and uterus weight; assay type: in vivo, rat; settings: adult ovariectomized rats, 56 days; compound 44 oral 1-10 mg/kg, effect already beginning with 1 mg/kg
# Method: 3-months-old female rats are ovariectomized and immediately after the operation they are treated with the test compound once daily for 56 days. Application is oral in peanut oil/ethanol. The animals are killed on the day after the last application and the tibia and the uteri are removed. The uteri are weighed, fixed and prepared for histological investigations. Bone density is determined ex vivo on prepared long bones by pQCT (peripheral quantitative computed tomography).
# Ovariectomy leads to a decrease in density of the trabecular bone in the measured region. By treatment with a compound of general formula I according to the present invention (dosages of 1-10 mg/kg/day) the decline in bone density is prevented or inhibited. Bone density was measured on the proximal tibia.
# The bone-protective action in adult ovariectomized female animals (rat) was investigated as described. […] The selected claimed pharmacological example compound 44 was applied orally at dosages from 1-10 mg/kg.
IC50 (oestrogen receptor (ER)),Stimulation of ovarian oestrogen synthesis: factor at a dose of 3 mg/kg rat [3],hepatic oestrogenicity: lowering of the peripheral cholesterol level [4],relative ERα content (% ER) (ERα protein),Compound,inhibition in vivo at 0.3 mg/kg (uterus [1]),Emax at 0.03 mg/kg (uterus [2]),"dosage with significant reduction in sizes of lesions (endometriosis lesions; 28 days of treatment, 115 tested 0.1-1 mg/kg, 44 tested 0.3-10 mg/kg)","reduction of lesion size (endometriosis lesions; s.c. daily, 4 weeks (FIG. 2A, FIG. 2B))","bone-protective action (trabecular bone mass density, tibia) [5]"
0.013 µM,2.7,only observed at high dosage,,"CN(CCCCCCC1=C(c2ccc(F)cc2)CCCc2cc(O)ccc21)CCCS(=O)(=O)CCCC(F)(F)C(F)(F)F [Example 115, 8-(4-fluorophenyl)-9-[6-(methyl{3-[(4,4,5,5,5-pentafluoropentyl)sulphonyl]propyl}amino)hexyl]-6,7-dihydro-5H-benzo[7]annulen-3-ol]",50%,3%,1 mg/kg,significant dose-dependent reduction of lesion size,
0.009 µM,2.3,only observed at high dosage,,"CN(CCCCCCC1=C(c2ccc(F)cc2)CCCc2cc(O)ccc21)CCC[S+]([O-])CCCC(F)(F)C(F)(F)F (stereo not shown) [Example 118, 8-(4-fluorophenyl)-9-[6-(methyl{3-[(4,4,5,5,5-pentafluoropentyl)sulphinyl]propyl}amino)hexyl]-6,7-dihydro-5H-benzo[7]annulen-3-ol]",78%,8%,,,
,,,0%,"C[C@]12CC[C@@H]3c4ccc(O)cc4C[C@@H](CCCCCCCCC[S+]([O-])CCCC(F)(F)C(F)(F)F)[C@H]3[C@@H]1CC[C@@H]2O (stereo partly shown) [fulvestrant, reference compound]",,,,,

Compound,IC50 (oestrogen receptor (ER)),Stimulation of ovarian oestrogen synthesis: factor at a dose of 3 mg/kg rat [3],hepatic oestrogenicity: lowering of the peripheral cholesterol level [4],relative ERα content (% ER) (ERα protein),inhibition in vivo at 0.3 mg/kg (uterus [1]),Emax at 0.03 mg/kg (uterus [2]),"dosage with significant reduction in sizes of lesions (endometriosis lesions; 28 days of treatment, 115 tested 0.1-1 mg/kg, 44 tested 0.3-10 mg/kg)","reduction of lesion size (endometriosis lesions; s.c. daily, 4 weeks (FIG. 2A, FIG. 2B))","bone-protective action (trabecular bone mass density, tibia) [5]"
"O=C(c1ccc(OCCN2CCCCC2)cc1)c1c(-c2ccc(O)cc2)sc2cc(O)ccc12 [raloxifene, reference compound]",,,hepatic oestrogenicity at all dosages tested; also recorded: marked lowering of the cholesterol level at all dosages,,,18%,,,marked bone protective action
